The conditions of data set [1]: mouse, in vivo, 5 mg/kg/day.
Data set [2] has as its system ApoE/LDLR−/− mice. In words: Histological assessment of plaque size and composition and vessel wall area in BCA (Example 2). The settings on record: two months. Type of data set: in vivo. The source says:
Plaque size and composition as well as vessel wall area (VWA) in BCA—Histological assessment, cross-section method, BCA cross-sections: total 13000 slides, Photographed: 1214 slides
For the determination of atherosclerotic plaque area and composition BCA was dissected, fixed in 4% buffered formalin and embedded in paraffin. 5 μm-thick serial sections of BCA were collected from proximal, middle and distal parts of artery. Originally developed staining with Unna's orcein combined with Martius, Scarlet and Blue trichrome (OMSB), was applied on every tenth section (50 μm interval between each section) for visualization of collagen, elastin, fibrin, red blood cells and vascular smooth muscle cells within atherosclerotic plaque. The areas of particular components of atherosclerotic plaque as well as artery lumen and wall were determined after Columbus-based software processing (FIG. 1B) using a previously developed algorithm [Gajda M, Jasztal A, Banasik T, Jasek-Gajda E, Chlopicki S. Combined orcein and martius scarlet blue (OMSB) staining for qualitative and quantitative analyses of atherosclerotic plaques in brachiocephalic arteries in apoE/LDLR−/− mice. Histochem Cell Biol 2017. doi:10.1007/s00418-017-1538-81.

Data set [3] relates to ApoE/LDLR−/− mice. In words: Nitrite and nitrate concentration in plasma, HPLC-based ENO-20 (Example 2). The settings on record: two months; for increase in NO2− concentration in plasma: vs untreated. Type of data set: in vivo. On the procedure:
Nitrite (NO2^−) and nitrate (NO3^−) concentration in plasma—HPLC-based ENO-20
Blood samples were collected from heart into test tubes containing additional anticoagulant and centrifuged at 1000 g for 10 min at 4° C. The samples were used for HPLC measurement of nitrate (NO3^−) and nitrite (NO2^−) concentrations in plasma by an ENO-20 NOx Analyzer.

In data set [4] the test system is thrombin generation in platelet-poor mice plasma. In words: Thrombin generation by calibrated automated thrombogram (CAT). The class given is in vivo. The conditions noted are these: either dose (0.03 or 10 mg/kg b.w./day), eight weeks. On the procedure:
Thrombin generation was measured in platelet-poor mice plasma using calibrated automated thrombography (CAT) technique as described in Hemker H C, Giesen P, Al Dieri R, Regnault V, de Smedt E, Wagenvoord R, et al. Calibrated automated thrombin generation measurement in clotting plasma. Pathophysiol Haemost Thromb 2003; 33:4-15. doi:71636. Thrombin generation was activated by mixing 21 μl of diluted plasma (1:1 with BSAS buffer) with 7 μIL of fluorogenic substrate (Z-Gly-Gly-Arg-AMC, 16.6 mM) and 14 μl of trigger solution containing phospholipids, tissue factor and CaCl2 (4 μM, […] and 16.6 mM, respectively). In the calibration wells, the 14 μl of reagents were replaced with calibrator (102 nM). Immediately after the activation, 5 μl of the mixture was pipetted on paper disks in a flat bottom 96-well polystyrene plate and covered with 40 μl of mineral oil. Fluorescent signals were measured using the Fluoroskan Ascent software (Thermo Labsystems, Helsinki, Finland) and transformed into thrombin concentration as described in Hemker H C, Kremers R. Data management in Thrombin Generation. Thromb Res 2013; 131:3-11. doi:10.1016/j.thromres.2012.10.011. The parameters analyzed included endogenous thrombin potential (ETP), peak thrombin concentration (peak), and lag time.

Data set [5] concerns endothelial nitric oxide synthase (eNOS)-dependent nitric oxide (NO) production. In words: Endothelial NO production in ex vivo aorta by EPR spin-trapping. The settings on record: 0.05 mg/kg b.w./day, vs untreated age-matched mice. The source says:
For measurements of endothelial nitric oxide synthase (eNOS)-dependent nitric oxide (NO) production, EPR spin-trapping with diethyldithiocarbamic acid sodium salt (DETC) was used ex vivo, as described in Przyborowski K, Proniewski B, Czarny J, Smeda M, Sitek B, Zakrzewska A, et al. Vascular Nitric Oxide-Superoxide Balance and Thrombus Formation after Acute Exercise. Med Sci Sport Exerc 2018:1. doi:10.1249/MSS.0000000000001589, with minor modifications. Isolated aorta cleared from surrounding tissue was opened longitudinally and preincubated with 10 μM L-NIL (N6-(1-Iminoethyl)-lysine, hydrochloride) in Krebs-HEPES buffer for 30 minutes at 37° C. in a well of a 48-well plate. Next, 250 μL of Fe(DETC)2 colloid was added and aorta was stimulated with calcium ionophore A23187 (the final concentration was 1 μM) and subsequently, incubated for 90 minutes at 37° C. Finally, aorta was weighed and frozen in liquid nitrogen (suspended in fresh buffer) into the middle of a 400 μL column of Krebs-Hepes buffer and stored at −80° C. until measured. EPR spectra were obtained using an X-band EPR spectrometer (EMX Plus, Bruker, Germany), equipped with a rectangular resonator cavity H102. Signals were quantified by measuring the total amplitude of the NO-Fe(DETC)2 after correction of baseline. The quantitative results of NO production assessed by EPR were expressed in AU/mg of tissue.

For another data set, the system named is matrix gla protein (MGP). In words: Clinical study: blood analysis of matrix gla protein carboxylation. Type of data set: in vivo, human. The settings on record: 360 ug/day, after 8 weeks of treatment, kidney transplant patients. On the procedure:
Participants were enrolled in a clinical trial in which the effects of vitamin K2 were determined for patients who had recently undergone a kidney transplant. At the beginning of the study, patients were subjected to a non-invasive pulse wave velocity measurement to measure arterial stiffness/flexibility, as well as blood analysis. The study participants were then instructed to receive a specific daily dose of MenaQ7 vitamin K2 menaquinone-7 (360 ug/day) for a total of 8 weeks. At the end of 8 weeks, patients were again examined with a follow-up examination, a non-invasive pulse wave velocity measurement and blood analysis and drug treatment was discontinued.
As part of the blood analysis, carboxylated matrix gla protein (MGP) was measured as a direct measure of vitamin K2 activity. The carboxylated MGP inhibits calcification of blood vessels and Vitamin K2 stimulates carboxylation of MGP.

Consider `CC(C)=CCC/C(C)=C/CC/C(C)=C/CC/C(C)=C/CC/C(C)=C/CC/C(C)=C/CC/C(C)=C/CC1=C(C)C(=O)c2ccccc2C1=O` [MK-7, menaquinone-7], for which, in data set [1], the “concentration of MK4 2,3-epoxide in plasma” value is “maintained at similar level in all groups”; the “plasma concentration of MK-4” value is given as “dose-dependent increase”; the “vitamin K1 and K1 2,3-epoxide plasma concentration” value is reported as “tent to decrease with increasing dose”. Moreover, the “decrease in vessel wall area (VWA) of BCA” value with ApoE/LDLR−/− mice [2] (low and high dose (0.03 and 10 mg/kg b.w./day)) is “about 5%”. Moreover, the “decrease of lipid core expressed as percent of plaque” value with ApoE/LDLR−/− mice [2] (low and high dose) is reported as “about 17%”. In addition, in the data set with ApoE/LDLR−/− mice [2] (low or high dose), the “effect on plaque size” value is listed as “did not result in a beneficial effect on plaque size”; the “plaque and lumen area expressed as percent of IWA” value was “did not change”. Besides, the “internal wall area (IWA)” value in the data set with ApoE/LDLR−/− mice [2] (lower dose 0.03 mg/kg b.w./day) is reported as “decreased only in the middle part of the vessel”. For the same compound, the “content of collagen in plaque” value in the data set with ApoE/LDLR−/− mice [2] (treated vs untreated groups) is “lack of differences between treated and untreated groups”. Further, the “concentration of NO3− in plasma” value in the data set with ApoE/LDLR−/− mice [3] (0.03 and 10 mg/kg b.w./day) is on record as “did not change significantly”. The “increase in NO2− concentration in plasma” value in the data set with ApoE/LDLR−/− mice [3] (high dose 10 mg/kg b.w./day) is reported as roughly 42%. Also, the “increase in NO2− concentration in plasma” value in the data set with ApoE/LDLR−/− mice [3] (low dose 0.03 mg/kg b.w./day) is listed as “about 58%”. Besides, in data set [4], the thrombin generation result was “did not affect”. Besides, the “nitric oxide production in ex vivo aorta by EPR” value in data set [5] was “increased nitric oxide production”. The “mean reduction of levels of uncarboxylated MGP” value with matrix gla protein (MGP) is on record as 55%.
